Earlier results, collected in patent publication US20070032536A1, “Compounds, compositions and methods” (priority 2003, published 2007).

System: A549 cells
Conditions: data provided by National Cancer Institute, Developmental Therapeutic Program

Point of comparison: `CC(=O)O[C@H]1C(=O)[C@@]2(C)[C@H]([C@H](OC(=O)c3ccccc3)[C@]3(O)C[C@H](OC(=O)[C@H](O)[C@@H](NC(=O)c4ccccc4)c4ccccc4)C(C)=C1C3(C)C)[C@]1(OC(C)=O)CO[C@@H]1C[C@@H]2O` [paclitaxel], GI50 0.004 µM. Against it:
- O=c1[nH]cc(F)c(=O)[nH]1 [5-fluorouracil] — 250-fold higher, 1 µM
- COc1cccc2c1C(=O)c1c(O)c3c(c(O)c1C2=O)C[C@@](O)(C(=O)CO)C[C@@H]3O[C@H]1C[C@H](N)[C@H](O)[C@H](C)O1 [doxorubicin] — 16-fold higher, 0.063 µM
- NC(=O)NO [hydroxyurea] — far higher, 500 µM
